Experimental data from patent US20110045101A1, “FUNGICIDAL SUBSTITUTED AZOLES” (E.I. Du Pont De Nemours and Company, priority 2009, published 2011).
Marks after values point to notes of the source that are not given here.

Key:
Assay type in all cases: in vivo
Alternaria solani = assay: Test D: tomato early blight, sprayed the day before inoculation, visual disease rating; conditions: 100 = 100% disease control; for pest or weed control at 200 ppm: Alternaria solani, 168 h
How it was run: (§1)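 Acetone solution (3% of final volume) of each compound is suspended in 50/50 acetone/water with 250 ppm Trem® 014. Plants are sprayed to run-off at 200 ppm, equivalent to 500 g/ha, or at 40 ppm for starred values.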

Septoria nodorum = assay: Test F: wheat glume blotch on wheat seedlings, sprayed the day before inoculation, visual disease rating; conditions: 100 = 100% disease control; for pest or weed control at 200 ppm: Parastagonospora nodorum, 264 h
How it was run: as §1

[1] = system: Puccinia recondita f. sp. tritici; assay: Test H: wheat leaf rust, test suspension sprayed after inoculation of wheat seedlings, visual disease rating; conditions: 100 = 100% disease control; for pest or weed control at 200 ppm: Puccinia recondita, 96 h
How it was run: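 Wheat seedlings inoculated with P. recondita spores, held 24 h saturated at 20 °C, then 2 days in growth chamber at 20 °C; compound suspension (acetone/water with Trem 014) sprayed to run-off afterwards. Rated visually; 200 ppm (≈500 g/ha) unless marked *, which denotes 40 ppm.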

[2] = system: Puccinia recondita f. sp. tritici; assay: Test I: wheat leaf rust on wheat seedlings, sprayed the day before inoculation, visual disease rating; conditions: 100 = 100% disease control; for pest or weed control at 200 ppm: Puccinia recondita, 168 h
How it was run: as §1

[3] = system: Erysiphe graminis f. sp. tritici; assay: Test J: wheat powdery mildew on wheat seedlings, sprayed the day before inoculation, visual disease rating; conditions: 100 = 100% disease control; for pest or weed control at 200 ppm: Blumeria graminis, 168 h
How it was run: as §1

Botrytis cinerea = assay: Test C: tomato Botrytis on tomato seedlings, sprayed the day before inoculation, visual disease rating; conditions: 100 = 100% disease control; for pest or weed control at 200 ppm: Botrytis cinerea, 120 h
How it was run: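 Disease ratings refer to tomato seedlings treated by run-off spraying with compound suspensions, mostly 200 ppm (500 g/ha equivalent) and in marked cases 40 ppm. Carrier: acetone/purified water 50/50 with 250 ppm polyhydric alcohol ester surfactant, after predissolving in acetone.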

Septoria tritici = assay: Test G: wheat leaf blotch on wheat seedlings, sprayed the day before inoculation, visual disease rating; conditions: 100 = 100% disease control; for pest or weed control at 200 ppm: Zymoseptoria tritici, 504 h
How it was run: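 Seedlings receive a protective spray of test suspension in acetone/water carrying 250 ppm surfactant, mostly at 200 ppm and at 40 ppm where marked. They are inoculated the next day, kept saturated at 24° C for 48 h, then held at 20° C for 19 days before visual scoring.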

[4] = 40 ppm (marked *), 0 = no control
[5] = 200 ppm, 0 = no control relative to controls

## COc1cc(F)c(-n2c(Br)nc(Cl)c2-c2ccc(Cl)cc2)c(F)c1 [compound 373]
Alternaria solani; [4]
  Test D disease control rating: 98* %
Septoria nodorum; [4]
  Test F disease control rating: 60* %
[1]; [4]
  Test H disease control rating: 0* %
[2]; [4]
  Test I disease control rating: 95* %
[3]; [4]
  Test J disease control rating: 99* %
Botrytis cinerea; [4]
  Test C disease control rating: 99* %
Septoria tritici; [4]
  Test G disease control rating: 92* %

## Fc1cccc(F)c1-c1c(Cl)nc(Br)n1-c1ccc(Cl)nc1 [compound 711]
Alternaria solani; [5]
  Test D disease control rating: 100%
Septoria nodorum; [5]
  Test F disease control rating: 99%
[1]; [5]
  Test H disease control rating: 98%
[2]; [5]
  Test I disease control rating: 99%
[3]; [5]
  Test J disease control rating: 99%
Botrytis cinerea; [5]
  Test C disease control rating: 100%
Septoria tritici; [5]
  Test G disease control rating: 99%

## COc1cc(F)c(-c2c(Cl)nc(Cl)n2-c2cccc(OC(F)(F)F)c2)c(F)c1 [compound 567]
Alternaria solani; [5]
  Test D disease control rating: 67%
Septoria nodorum; [5]
  Test F disease control rating: 0%
[1]; [5]
  Test H disease control rating: 7%
[2]; [5]
  Test I disease control rating: 99%
[3]; [5]
  Test J disease control rating: 100%
Botrytis cinerea; [5]
  Test C disease control rating: 99%
Septoria tritici; [5]
  Test G disease control rating: 94%

## Fc1cccc(-n2c(Cl)nc(Cl)c2-c2c(F)cc(F)cc2F)c1 [compound 365]
Alternaria solani; [5]
  Test D disease control rating: 100%
Septoria nodorum; [5]
  Test F disease control rating: 40%
[1]; [5]
  Test H disease control rating: 54%
[2]; [5]
  Test I disease control rating: 99%
[3]; [5]
  Test J disease control rating: 96%
Botrytis cinerea; [5]
  Test C disease control rating: 100%
Septoria tritici; [5]
  Test G disease control rating: 91%

## Cc1ncn(-c2ccc(Cl)c(F)c2)c1-c1ccc(Br)cn1 [compound 347]
Alternaria solani; [5]
  Test D disease control rating: 0%
Septoria nodorum; [5]
  Test F disease control rating: 0%
[1]; [5]
  Test H disease control rating: 26%
[2]; [5]
  Test I disease control rating: 9%
[3]; [5]
  Test J disease control rating: 0%
Botrytis cinerea; [5]
  Test C disease control rating: 93%
Septoria tritici; [5]
  Test G disease control rating: 70%

## Fc1cccc(F)c1-c1c(Cl)nc(Br)n1-c1ccc2ncccc2c1 [compound 327]
Alternaria solani; [4]
  Test D disease control rating: 98* %
Septoria nodorum; [4]
  Test F disease control rating: 0* %
[1]; [4]
  Test H disease control rating: 0* %
[2]; [4]
  Test I disease control rating: 86* %
[3]; [4]
  Test J disease control rating: 0* %
Botrytis cinerea; [4]
  Test C disease control rating: 99* %
Septoria tritici; [4]
  Test G disease control rating: 94* %

## COc1ccc(F)c(-c2c(Cl)nc(Br)n2-c2ccc(C)c(F)c2)c1F [compound 551]
Alternaria solani; [5]
  Test D disease control rating: 100%
Septoria nodorum; [5]
  Test F disease control rating: 96%
[1]; [5]
  Test H disease control rating: 0%
[2]; [5]
  Test I disease control rating: 100%
[3]; [5]
  Test J disease control rating: 100%
Botrytis cinerea; [5]
  Test C disease control rating: 100%
Septoria tritici; [5]
  Test G disease control rating: 98%

## COc1ccc(F)c(-c2c(Cl)nc(Cl)n2-c2ccc(Cl)cc2)c1F [compound 309]
Alternaria solani; [5]
  Test D disease control rating: 100%
Septoria nodorum; [5]
  Test F disease control rating: 100%
[1]; [5]
  Test H disease control rating: 11%
[2]; [5]
  Test I disease control rating: 100%
[3]; [5]
  Test J disease control rating: 100%
Botrytis cinerea; [5]
  Test C disease control rating: 100%
Septoria tritici; [5]
  Test G disease control rating: 97%

## Cc1nc(Cl)c(-c2c(F)cccc2F)n1-c1ccc2c(c1)OCCO2 [compound 470]
Alternaria solani; 40 ppm (marked *)
  Test D disease control rating: 99* %
Septoria nodorum; 40 ppm (marked *)
  Test F disease control rating: 0* %
[1]; 40 ppm (marked *)
  Test H disease control rating: 0* %
[2]; 40 ppm (marked *)
  Test I disease control rating: 99* %
[3]; 40 ppm (marked *)
  Test J disease control rating: 87* %
Botrytis cinerea; 40 ppm (marked *)
  Test C disease control rating: 99* %
Septoria tritici; 40 ppm (marked *)
  Test G disease control rating: 92* %

## Cc1ncn(-c2ccc(Cl)c(F)c2)c1-c1scnc1Cl [compound 376]
Alternaria solani; [5]
  Test D disease control rating: 0%
Septoria nodorum; [5]
  Test F disease control rating: 0%
[1]; [5]
  Test H disease control rating: 0%
[2]; [5]
  Test I disease control rating: 54%
[3]; [5]
  Test J disease control rating: 67%
Botrytis cinerea; [5]
  Test C disease control rating: 90%
Septoria tritici; [5]
  Test G disease control rating: 78%

## COc1cc(F)c(-c2c(C)nc(C)n2-c2ccc(F)cc2)c(F)c1 [compound 522]
Alternaria solani; 40 ppm (marked *)
  Test D disease control rating: 100* %
Septoria nodorum; 40 ppm (marked *)
  Test F disease control rating: 0* %
[1]; 40 ppm (marked *)
  Test H disease control rating: 0* %
[2]; 40 ppm (marked *)
  Test I disease control rating: 99* %
[3]; 40 ppm (marked *)
  Test J disease control rating: 96* %
Botrytis cinerea; 40 ppm (marked *)
  Test C disease control rating: 100* %
Septoria tritici; 40 ppm (marked *)
  Test G disease control rating: 98* %

## N#Cc1ccc(F)c(-c2c(Cl)ncn2-c2ccc(Cl)cc2)c1F [Compound 386, 3-[4-chloro-1-(4-chlorophenyl)-1H-imidazol-5-yl]-2,4-difluorobenzonitrile]
Alternaria solani; [5]
  pest or weed control at 200 ppm: 100%
Septoria nodorum; [5]
  pest or weed control at 200 ppm: 0%
[1]; [5]
  pest or weed control at 200 ppm: 0%
[2]; [5]
  pest or weed control at 200 ppm: 98%
[3]; [5]
  pest or weed control at 200 ppm: 95%
Botrytis cinerea; [5]
  pest or weed control at 200 ppm: 99%
Septoria tritici; [5]
  pest or weed control at 200 ppm: 96%

## Fc1cc(F)c(-c2c(Cl)nc(Br)n2-c2ccc(OC(F)F)cc2)c(F)c1 [compound 604]
Alternaria solani; [5]
  Test D disease control rating: 100%
Septoria nodorum; [5]
  Test F disease control rating: 100%
[1]; [5]
  Test H disease control rating: 97%
[2]; [5]
  Test I disease control rating: 100%
[3]; [5]
  Test J disease control rating: 100%
Botrytis cinerea; [5]
  Test C disease control rating: 99%
Septoria tritici; [5]
  Test G disease control rating: 99%

## COc1ccc(F)c(-c2c(Cl)nc(Cl)n2-c2ccc(Br)cc2)c1F [compound 562]
Alternaria solani; [5]
  Test D disease control rating: 100%
Septoria nodorum; [5]
  Test F disease control rating: 99%
[1]; [5]
  Test H disease control rating: 0%
[2]; [5]
  Test I disease control rating: 99%
[3]; [5]
  Test J disease control rating: 100%
Botrytis cinerea; [5]
  Test C disease control rating: 100%
Septoria tritici; [5]
  Test G disease control rating: 100%

## COc1cc(F)c(-n2c(Cl)nc(C)c2-c2cccc(F)c2)c(F)c1 [compound 686]
Alternaria solani; 40 ppm (marked *)
  Test D disease control rating: 100* %
Septoria nodorum; 40 ppm (marked *)
  Test F disease control rating: 82* %
[1]; 40 ppm (marked *)
  Test H disease control rating: 98* %
[2]; 40 ppm (marked *)
  Test I disease control rating: 99* %
[3]; 40 ppm (marked *)
  Test J disease control rating: 98* %
Botrytis cinerea; 40 ppm (marked *)
  Test C disease control rating: 100* %
Septoria tritici; 40 ppm (marked *)
  Test G disease control rating: 98* %

## COc1cc(F)c(-n2c(Cl)nc(C)c2-c2ccc(Cl)cc2)c(F)c1 [compound 396]
Alternaria solani; [4]
  Test D disease control rating: 100* %
Septoria nodorum; [4]
  Test F disease control rating: 99* %
[1]; [4]
  Test H disease control rating: 0* %
[2]; [4]
  Test I disease control rating: 100* %
[3]; [4]
  Test J disease control rating: 99* %
Botrytis cinerea; [4]
  Test C disease control rating: 100* %
Septoria tritici; [4]
  Test G disease control rating: 93* %

## CC(=O)Nc1ccc(-n2c(Cl)nc(Cl)c2-c2c(F)cccc2F)cc1Cl [compound 636]
Alternaria solani; 40 ppm (marked *)
  Test D disease control rating: 24* %
Septoria nodorum; 40 ppm (marked *)
  Test F disease control rating: 0* %
[1]; 40 ppm (marked *)
  Test H disease control rating: 0* %
[2]; 40 ppm (marked *)
  Test I disease control rating: 52* %
[3]; 40 ppm (marked *)
  Test J disease control rating: 0* %
Botrytis cinerea; 40 ppm (marked *)
  Test C disease control rating: 90* %
Septoria tritici; 40 ppm (marked *)
  Test G disease control rating: 95* %

## COc1cc(OC)cc(-n2cnc(C)c2-c2c(F)cc(OC)cc2F)c1 [Compound 632, 5-(2,6-difluoro-4-methoxyphenyl)-1-(3,5-dimethoxyphenyl)-4-methyl-1H-imidazole]
Alternaria solani; [5]
  pest or weed control at 200 ppm: 100%
Septoria nodorum; [5]
  pest or weed control at 200 ppm: 0%
[1]; [5]
  pest or weed control at 200 ppm: 99%
[2]; [5]
  pest or weed control at 200 ppm: 100%
[3]; [5]
  pest or weed control at 200 ppm: 97%
Botrytis cinerea; [5]
  pest or weed control at 200 ppm: 99%
Septoria tritici; [5]
  pest or weed control at 200 ppm: 98%

## Cc1nc(Cl)c(Cc2c(F)cc(F)cc2F)n1-c1c(Cl)cccc1Cl [compound 537]
Alternaria solani; [5]
  Test D disease control rating: 76%
Septoria nodorum; [5]
  Test F disease control rating: 60%
[1]; [5]
  Test H disease control rating: 9%
[2]; [5]
  Test I disease control rating: 100%
[3]; [5]
  Test J disease control rating: 99%
Botrytis cinerea; [5]
  Test C disease control rating: 99%
Septoria tritici; [5]
  Test G disease control rating: 97%

## COc1ncccc1-n1c(Cl)nc(Cl)c1-c1c(F)cccc1F [compound 616]
Alternaria solani; [5]
  Test D disease control rating: 0%
Septoria nodorum; [5]
  Test F disease control rating: 0%
[1]; [5]
  Test H disease control rating: 0%
[2]; [5]
  Test I disease control rating: 98%
[3]; [5]
  Test J disease control rating: 99%
Botrytis cinerea; [5]
  Test C disease control rating: 100%
Septoria tritici; [5]
  Test G disease control rating: 99%
